# From patent US20030069220A1, “METHOD FOR MASS MEDICATION IN BIOLOGICAL ATTACKS” (priority 2001, published 2003)
# Columns and labels:
# [1] = Dissolution of antibiotic powders (cephalosporin plus citric acid) in water, Example 1; format: physicochemical
# Description: The following antibiotic powders were formed without sweeteners and flavorings by addition to clear plastic bags and by working of the bags. The mixtures were added to water in the amounts noted and the conditions of dissolution are noted, as well as the resultant pH or the formed solution. Although Example 1 describes the use of citric acid, various other constituents may be utilized as a […] (e.g., various amino acids).
# [2] = in vivo; cited from earlier work
# [3] = ampicillin dissolved with 95 mole-% sodium carbonate; or aqueous solution of pre-formed salt; cited from earlier work
SMILES,pH of the formed solution [1],time to form a solution [1],absorbed by the body when ingested [2] [%],pH of aqueous solution [3]
"CC1=C(C(=O)O)N2C(=O)[C@@H](NC(=O)[C@H](N)c3ccccc3)[C@H]2SC1 [Cephalexin, αaminobenzyl-3-desacetoxycephalosporin]",pH of 3.3.,solution in 5 minutes,90,
CC1(C)S[C@@H]2[C@H](NC(=O)[C@H](N)c3ccccc3)C(=O)N2[C@H]1C(=O)O [ampicillin],,,,8.3
CC1(C)S[C@@H]2[C@H](NC(=O)[C@H](N)c3ccccc3)C(=O)N2[C@H]1C(=O)[O-].[Na+] [sodium ampicillin],,,,~9.5
